Measured values as given in patent US8551978B2 (Theravance, Inc., priority 2009, dated 2013).
Counter-ions that a name gives are not always drawn. Like-named read-outs stand apart in the source and are kept apart here.

Legend:
[1] = target: hM3 muscarinic receptor (Homo sapiens (Human), UniProt P20309); assay: Radioligand binding assay for muscarinic receptors ([3H]-NMS displacement, CHO cell membranes)
Procedure: The cells were grown in a 5% CO2, 37° C. incubator and lifted with 2 mM EDTA in dPBS. Cells were collected by 5 minute centrifugation at 650×g, and cell pellets were either stored frozen at −80° C. or membranes were prepared immediately for use. For membrane preparation, cell pellets were resuspended in lysis buffer and homogenized with a Polytron PT-2100 tissue disrupter (Kinematica AG; 20 seconds×2 bursts). Crude membranes were centrifuged at 40,000×g for 15 minutes at 4° C. The membrane pellet was then resuspended with re-suspension buffer and homogenized again with the Polytron tissue disrupter. The protein concentration of the membrane suspension was determined by the method described in Lowry et al., 1951, […], 193, 265. All membranes were stored frozen in aliquots at −80° C. or used immediately. […] The membranes were briefly homogenized using a Polytron tissue disruptor (10 seconds) prior to assay plate addition. […] The test compounds were initially dissolved to a concentration of 400 μM in dilution buffer and then serially diluted 5× with dilution buffer to final concentrations ranging from 10 μM to […]. The order of addition and volumes added to the assay plates were as follows: 25 μL radioligand, 25 μL diluted test compound, and 50 μL membranes. Assay plates were incubated for 6 hours at 37° C. […] Filter plates were rinsed three times with wash buffer (10 mM HEPES) to remove unbound radioactivity. The plates were then air-dried and 50 μL Microscint-20 liquid scintillation fluid (PerkinElmer, Inc.) were added to each well. The plates were then counted in a PerkinElmer Topcount liquid scintillation counter (PerkinElmer, Inc.). Binding data were analyzed by nonlinear regression analysis with the GraphPad Prism Software package (GraphPad Software, Inc., San Diego, Calif.) using the one-site competition model. […] These summary statistics were then converted back to K; values for data reporting.

[2] = target: hβ2 adrenergic receptor (Homo sapiens (Human), UniProt P07550); assay: Assay for determining adrenergic receptor agonist potency (cAMP Flashplate, HEK-293 cells); format: cell-based; settings: data rounded to nearest 1 nM
hβ2 adrenergic receptor, sequence (P07550 whole entry): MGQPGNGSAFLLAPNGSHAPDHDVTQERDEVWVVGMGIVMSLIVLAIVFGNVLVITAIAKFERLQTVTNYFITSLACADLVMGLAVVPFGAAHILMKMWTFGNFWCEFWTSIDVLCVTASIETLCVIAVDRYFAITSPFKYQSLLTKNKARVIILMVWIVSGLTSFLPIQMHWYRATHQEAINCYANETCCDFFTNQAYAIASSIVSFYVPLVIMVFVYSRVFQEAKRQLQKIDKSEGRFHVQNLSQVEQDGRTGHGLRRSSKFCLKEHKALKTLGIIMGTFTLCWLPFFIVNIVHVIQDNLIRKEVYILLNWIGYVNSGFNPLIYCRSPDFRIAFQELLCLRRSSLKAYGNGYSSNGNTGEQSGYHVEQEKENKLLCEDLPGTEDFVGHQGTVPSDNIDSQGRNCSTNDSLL
Procedure: The cell monolayer was lifted with 2 mM EDTA in PBS. Cells were pelleted by centrifugation at 1,000 rpm, and cell pellets were either stored frozen at −80° C. or membranes were prepared immediately for use. cAMP assays were performed in a radioimmunoassay format using the Flashplate Adenylyl Cyclase Activation Assay System with [^125I]-cAMP (NEN SMP004, PerkinElmer Life Sciences Inc., Boston, Mass.), according to the manufacturers instructions. […] Cells were rinsed with PBS and detached in dPBS (Dulbecco's Phosphate Buffered Saline, without CaCl2 and MgCl2) containing 2 mM EDTA or Trypsin-EDTA solution (0.05% trypsin/0.53 mM EDTA). After counting cells in Coulter cell counter, cells were pelleted by centrifugation at 1,000 rpm and re-suspended in stimulation buffer containing TBMX (PerkinElmer Kit) pre-warmed to room temperature to a concentration of 1.6×10^6 to 2.8×10^6 cells/mL. About 40,000 to 80,000 cells per well were used in this assay. […] Reactions were incubated for 10 min at 37° C. and stopped by adding 100 μL of cold detection buffer containing [^125I]-cAMP (NEN SMP004, PerkinElmer Life Sciences, Boston, Mass.). […] Data were analyzed by nonlinear regression analysis with the GraphPad Prism Software package (GraphPad Software, Inc., San Diego, Calif.) with the sigmoidal equation. The Cheng-Prusoff equation (Cheng Y, and Prusoff W H., Biochemical Pharmacology, 1973, 22, 23, 3099-108) was used to calculate the EC50 values.

[3] = system: MCh-induced bronchoconstriction; assay: Einthoven assay: bronchoprotection against methacholine (MCh)-induced bronchoconstriction; format: in vivo, rat; settings: for inhibition in vivo at 0.1 mg: inhaled or nasal, read-out: Broncho. at 24 h
Procedure: This assay measures the ability of a test compound to provide bronchoprotection against methacholine (MCh)-induced bronchoconstriction in a rat. Male Sprague-Dawley rats (Harlan, Indianapolis, Ind.), weighing between 200 g and 350 g, were used for all studies. Test compound or vehicle (sterile deionized water) were dosed by inhalation (1H) over a 10 min period in a pie shaped inhalation chamber (R+S Molds, San Carlos, Calif.) using 5 mL of dosing solution. […] Rats were dosed with 100 μg of test compound unless otherwise indicated. At predetermined time points, rats were anesthetized with an intraperitoneal (IP) injection of 120 mg/kg inactin (thiobutabarbital). A supplemental dose (40 mg/kg, IP) was administered if the animal responded to physical stimuli (e.g. toe pinch). The surgical site was shaved and a 1-2 cm midline incision of the ventral aspect of the neck was made. The jugular vein was isolated and cannulated with a saline-filled polyethylene catheter (PE-50) to allow IV infusion of MCh. Trachea was dissected free and cannulated with a 14G needle (#NE-014, Small Parts, Miami Lakes, Fla.). After placement of the tracheal cannula, each rat was ventilated using a respirator (Model 683, Harvard Apparatus, Inc., MA) set at a stroke volume of 1 mL/100 g body weight (but not exceeding 2.5 mL volume) and a rate of 90 strokes per minute. A T-connector was placed along the respirator expiratory tubing to allow for measurement of changes in ventilation pressure (VP) using a Biopac transducer that was connected to a Biopac […]) pre-amplifier. Body temperature was maintained at 37° C. using a heating pad. Changes in VP were recorded using the Acknowledge Data Collection Software (Santa Barbara, Calif.). Baseline values were collected for at least 2.5 min. Rats were then challenged with non-cumulative intravenous (IV) infusions of 40 and 80 μg/kg MCh. MCh was infused intravenously for 2.5 minutes from a syringe pump (sp210iw, World Precision Instruments, Inc., Sarasota, Fla.) at a rate of 2 mL/kg/min, with a 2 minute interval between the two doses of MCh. Changes in ventilation pressure (cm H2O) in treated animals are expressed as % inhibition of MCh response relative to control animals. Other bronchoconstrictors, such as histamine and acetylcholine, can be used in place of MCh in this assay. Additionally, guinea pigs can be used instead of rats. […] Inhibition greater than or equal to 30 percent at 24 h is indicative of a long duration of action.

[4] = rat, 100 μg by inhalation, 24 h after administration
[5] = hM3 Muscarinic Receptor Binding, data rounded to nearest 0.1 nM

hM3 muscarinic receptor, sequence (P20309 whole entry): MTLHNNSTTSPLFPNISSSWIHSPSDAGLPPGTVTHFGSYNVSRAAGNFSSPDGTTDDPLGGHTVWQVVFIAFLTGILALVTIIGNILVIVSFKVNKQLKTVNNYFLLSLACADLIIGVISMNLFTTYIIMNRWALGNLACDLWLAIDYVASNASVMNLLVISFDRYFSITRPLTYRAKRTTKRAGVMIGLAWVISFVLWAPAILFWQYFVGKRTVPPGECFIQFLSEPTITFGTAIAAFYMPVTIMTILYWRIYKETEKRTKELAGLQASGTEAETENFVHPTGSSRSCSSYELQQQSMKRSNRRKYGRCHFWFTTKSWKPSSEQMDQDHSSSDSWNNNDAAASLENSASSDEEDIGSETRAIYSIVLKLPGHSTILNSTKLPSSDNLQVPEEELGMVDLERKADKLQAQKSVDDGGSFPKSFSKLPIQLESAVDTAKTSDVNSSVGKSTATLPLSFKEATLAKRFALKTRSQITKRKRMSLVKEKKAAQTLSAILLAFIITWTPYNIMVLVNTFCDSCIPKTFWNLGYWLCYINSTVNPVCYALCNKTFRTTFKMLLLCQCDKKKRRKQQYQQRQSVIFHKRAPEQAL

Structure (SMILES)	Ki [1] [pM]	EC50 [2] [pM]	Broncho. at 24 h [3, 4]	Ki [1, 5] [pM]	inhibition in vivo at 0.1 mg [3, 4] [%]	inhibition in vivo at 0.1 mg ([3]; Rattus norvegicus, 24 h) [%]
Cc1cc(NC(=O)c2cccc(N(C)C(=O)CCN3CCC(OC(=O)Nc4ccccc4-c4ccccc4)CC3)c2)c(C)cc1CNC[C@H](O)c1ccc(O)c2[nH]c(=O)ccc12 [Compound I-30]	200	1000	No	–	–	–
COc1cc(NC(=O)CCCN(C)C(=O)CCN2CCC(OC(=O)Nc3ccccc3-c3ccccc3)CC2)ccc1CNC[C@H](O)c1ccc(O)c2[nH]c(=O)ccc12 [Compound I-4]	–	2000	–	100	> 30	–
C[C@H](Cc1cccc(CC(=O)NCc2ccc(N(C)C(=O)CCN3CCC(OC(=O)Nc4ccccc4-c4ccccc4)CC3)cc2)c1)NC[C@H](O)c1ccc(O)c2[nH]c(=O)ccc12 [Compound I-78]	300	1000	–	–	> 30	–
CC(Cc1ccc(F)c(CC(=O)NCc2ccc(N(C)C(=O)CCN3CCC(OC(=O)Nc4ccccc4-c4ccccc4)CC3)cc2)c1)NC[C@H](O)c1ccc(O)c2[nH]c(=O)ccc12 (stereo partly shown) [Compound I-95]	200	1000	–	–	> 30	–
CC(Cc1cccc(CC(=O)NCCCCN(C)C(=O)CCN2CCC(OC(=O)Nc3ccccc3-c3ccccc3)CC2)c1)NC[C@H](O)c1ccc(O)c2[nH]c(=O)ccc12 (stereo partly shown) [Compound I-22]	100	1000	–	–	> 30	–
C[C@@H](Cc1ccc(CCNC(=O)Cc2ccc(N(C)C(=O)CCN3CCC(OC(=O)Nc4ccccc4-c4ccccc4)CC3)cc2)cc1)NC[C@H](O)c1ccc(O)c2[nH]c(=O)ccc12 [Compound I-89]	100	1000	–	–	> 30	–
C[C@@H](Cc1cccc(CC(=O)NCCCN(C)C(=O)CCN2CCC(OC(=O)Nc3ccccc3-c3ccccc3)CC2)c1)NC[C@H](O)c1ccc(O)c2[nH]c(=O)ccc12 [Compound I-13, Biphenyl-2-ylcarbamic Acid 1-[2-({3-[2-(3-{(S)-2-[(R)-2-Hydroxy-2-(8-hydroxy-2-oxo-1,2-dihydroquinolin-5-yl)ethylamino]propyl}phenyl)acetylamino]-propyl}methylcarbamoyl)ethyl]piperidin-4-yl Ester Ditrifluoroacetic Acid Salt]	100	1000	–	–	–	> 30
CC(Cc1ccc(CNC(=O)c2cccc(N(C)C(=O)CCN3CCC(OC(=O)Nc4ccccc4-c4ccccc4)CC3)c2)cc1)NC[C@H](O)c1ccc(O)c2[nH]c(=O)ccc12 (stereo partly shown) [Compound I-46]	100	1000	–	–	> 30	–
CC(Cc1ccc(CNC(=O)Cc2ccc(N(C)C(=O)CCN3CCC(OC(=O)Nc4ccccc4-c4ccccc4)CC3)cc2)cc1)NC[C@H](O)c1ccc(O)c2[nH]c(=O)ccc12 (stereo partly shown) [Compound I-67]	100	1000	–	–	> 30	–
CC(Cc1cccc(CCC(=O)NCc2ccc(N(C)C(=O)CCN3CCC(OC(=O)Nc4ccccc4-c4ccccc4)CC3)cc2)c1)NC[C@H](O)c1ccc(O)c2[nH]c(=O)ccc12 (stereo partly shown) [Compound I-91]	200	1000	–	–	> 30	–
CC(Cc1ccc(CC(=O)Nc2cccc(N(C)C(=O)CCN3CCC(OC(=O)Nc4ccccc4-c4ccccc4)CC3)c2)cc1)NC[C@H](O)c1ccc(O)c2[nH]c(=O)ccc12 (stereo partly shown) [Compound I-53]	100	1000	No	–	–	–
Cc1ccc(C(=O)Nc2cccc(CCNC[C@H](O)c3ccc(O)c4[nH]c(=O)ccc34)c2)cc1N(C)C(=O)CCN1CCC(OC(=O)Nc2ccccc2-c2ccccc2)CC1 [Compound I-33]	200	1000	No	–	–	–
COc1cc(CNC[C@H](O)c2ccc(O)c3[nH]c(=O)ccc23)ccc1NC(=O)CCCN(C)C(=O)CCN1CCC(OC(=O)Nc2ccccc2-c2ccccc2)CC1 [Compound I-3]	–	1000	–	100	> 30	–
Cc1ccc(C(=O)Nc2ccc(CCNC[C@H](O)c3ccc(O)c4[nH]c(=O)ccc34)cc2)cc1N(C)C(=O)CCN1CCC(OC(=O)Nc2ccccc2-c2ccccc2)CC1 [Compound I-35]	–	–	Yes (Bronchoprotective effect present at 24 h, e.g., ≧30% inhibition of the MCh response at 24 h in the rat Einthoven assay (100 μg))	–	–	–
CC(Cc1ccc(CNC(=O)Cc2ccc(N(C)C(=O)CCN3CCC(OC(=O)Nc4ccccc4-c4ccccc4)CC3)cc2)cc1)NC[C@H](O)c1ccc(O)c2[nH]c(=O)ccc12 (stereo partly shown) [Compound I-66]	200	1000	No	–	–	–
C[C@@H](Cc1ccc(NC(=O)c2cccc(N(C)C(=O)CCN3CCC(OC(=O)Nc4ccccc4-c4ccccc4)CC3)c2)cc1)NC[C@H](O)c1ccc(O)c2[nH]c(=O)ccc12 [Compound I-43]	–	–	–	–	> 30	–
CC(Cc1ccc(CCNC(=O)Cc2ccc(N(C)C(=O)CCN3CCC(OC(=O)Nc4ccccc4-c4ccccc4)CC3)cc2)cc1)NC[C@H](O)c1ccc(O)c2[nH]c(=O)ccc12 (stereo partly shown) [Compound I-88]	100	1000	–	–	> 30	–
CC(Cc1cccc(CC(=O)Nc2cccc(N(C)C(=O)CCN3CCC(OC(=O)Nc4ccccc4-c4ccccc4)CC3)c2)c1)NC[C@H](O)c1ccc(O)c2[nH]c(=O)ccc12 (stereo partly shown) [Compound I-52]	200	1000	No	–	–	–
C[C@H](Cc1cccc(CC(=O)NCCCCN(C)C(=O)CCN2CCC(OC(=O)Nc3ccccc3-c3ccccc3)CC2)c1)NC[C@H](O)c1ccc(O)c2[nH]c(=O)ccc12 [Compound I-23]	100	1000	–	–	> 30	–
CC(Cc1cccc(CCNC(=O)Cc2ccc(N(C)C(=O)CCN3CCC(OC(=O)Nc4ccccc4-c4ccccc4)CC3)cc2)c1)NC[C@H](O)c1ccc(O)c2[nH]c(=O)ccc12 (stereo partly shown) [Compound I-85]	–	–	–	–	> 30	–
CC(Cc1ccc(NC(=O)c2cccc(N(C)C(=O)CCN3CCC(OC(=O)Nc4ccccc4-c4ccccc4)CC3)c2)cc1)NC[C@H](O)c1ccc(O)c2[nH]c(=O)ccc12 (stereo partly shown) [Compound I-40]	–	–	–	–	> 30	–
